According to patent US20230080054A1 (ILDONG PHARMACEUTICAL CO., LTD., priority 2021, published 2023):

The molecules below were run on platelet-rich plasma (PRP) (assay: Recalcification time of rat platelet-rich plasma). Details: 30 μM, vs 2% DMSO control.
Procedure: Example 5: Recalcification Time
1. Materials and Instruments
Isoflurane (Hana Pharm, cat. #9008), Isotonic Sodium Chloride Injection (Daihan Pharm, cat. #331), Citrate-dextrose solution (Sigma-Aldrich, cat. #C3821), Calcium chloride solution (Sigma-Aldrich, cat. #21115), 22G Syringe 10 mL (Koreavaccine), Dimethyl sulfoxide (Sigma-Aldrich, cat. #D5879), Apixaban (AK scientific, cat. #X1060), 96 Well Cell Culture Plates (SPL Life Sciences, cat. #30096), Synergy H4 Hybrid Microplate Reader (BioTek), Combi R515 Multi-purpose Centrifuge (Hanil Scientific), BS-06 Shaking & Heating Baths (JEIO TECH), and PST-60HL-4 Plate Shaker-Thermostat (Bio-San)
Seven-week-old male SD Rat (ORIENT BIO.) were maintained under controlled conditions of temperature (22±2° C.) and 12-h light/12-h dark cycle. Rats were housed in the pathogen-free facility of the Laboratory Animal Research Center in Ildong Pharmaceutical Co. Ltd. All procedures on animals were conducted in accordance with the relevant national regulatory guidelines and individual experiments approved by the Ildong Pharmaceutical Co. Ltd., Institutional Animal Care and Use Committee (IACUC) (approval No.: A2106-3, 2108-4).
The ability of test compounds to interfere with plasma coagulation, in the presence of platelets, was analyzing by measuring the recalcification time of rat plasma. The blood of animals was collected into 15 mL tubes containing Citrate-dextrose solution (9:1 v/v) before performing the assays. For recalcification time, platelet-rich plasma (PRP) samples were obtained by centrifugation at 360×g for 10 minutes. And the PRP were preincubated for 5 minutes (37° C.). In a 96 well microplate, test compounds (2 μL) were treated in 98 μL of platelet rich plasma. After mixing with a pipette, it was incubated at 37° C. for 15 minutes. The reaction was started by addition of 200 μL of pre-warmed CaCl2) (16 mM). Immediately, put the microplate in a microplate reader and the signals were measured by the following steps.
(1) 405 nm wavelength absorbance signals were recorded in every 10 seconds at 37° C.
(2) Basal absorbance signals were recorded for 0 second.
The signal variance of each of the test compounds was obtained by the following step.
(1) Background signals (t=O) were subtracted from recording values, and the resulting values were converted to change values. The values at 0 second were set to be zero.
The retardation time of test compound were calculated by the following formula:
Retardation time (sec)=[log EC50 (test sample)−log EC50 (DMSO control)]
As described above, a DMSO control group is a group to which 2% DMSO was treated.
The assay result is shown in Table 5, where compounds (30 μM) having less than 20 seconds of retardation time are marked by ‘C’; the compounds (30 μM) having retardation time of 20 seconds or more to less than 50 seconds are marked by ‘B’; and the compounds (30 μM) having retardation time of 50 seconds or more are marked by ‘A’.
In the case of `O=C(N[C@@H]1C[C@H]1c1ccccc1)c1cccc(Nc2ccc(-c3ccccc3)nn2)c1` [Compound 68, N-[(1R,2S)-2-phenylcyclopropyl]-3-[(6-phenylpyridazin-3-yl)amino]benzamide], the “Inhibition Level (retardation time, recalcification time)” value is reported as “A (the compounds (30 μM) having retardation time of 50 seconds or more)”. `O=C(NCCc1cccc(C(F)(F)F)c1)c1cccc(Nc2ncc(-c3cccc(F)c3)cn2)c1` [Compound 79, 3-{[5-(3-fluorophenyl)pyrimidin-2-yl]amino}-N-{2-[3-(trifluoromethyl)phenyl]ethyl}benzamide] was tested, and the “Inhibition Level (retardation time, recalcification time)” value was “C (compounds (30 μM) having less than 20 seconds of retardation time)”. With `O=C(NCCC1CCCCC1)c1cccc(Nc2ncc(-c3cccc(F)c3)cn2)c1` [Compound 80, N-(2-cyclohexylethyl)-3-{[5-(3-fluorophenyl)pyrimidin-2-yl]amino}benzamide] the “Inhibition Level (retardation time, recalcification time)” value was “C (compounds (30 μM) having less than 20 seconds of retardation time)”. `O=C(Nc1ccc(Cl)c(Cl)c1)c1cccc(Nc2ncc(-c3cccc(F)c3)cn2)c1` [Compound 118, N-(3,4-dichlorophenyl)-3-{[5-(3-fluorophenyl)pyrimidin-2-yl]amino}benzamide] was tested, and the “Inhibition Level (retardation time, recalcification time)” value was “C (compounds (30 μM) having less than 20 seconds of retardation time)”. `O=C(N[C@@H]1C[C@H]1c1ccccc1)c1cccc(Nc2ncc(-c3cccc(F)c3)cn2)c1` [Compound 119, 3-{[5-(3-fluorophenyl)pyrimidin-2-yl]amino}-N-[(1R,2S)-2-phenylcyclopropyl]benzamide] was tested, and the “Inhibition Level (retardation time, recalcification time)” value was “C (compounds (30 μM) having less than 20 seconds of retardation time)”. With `O=C(Nc1cccc(F)c1)c1cccc(Nc2ccc(-c3cccc(F)c3)cn2)c1` [Compound 122, N-(3-fluorophenyl)-3-{[5-(3-fluorophenyl)pyridin-2-yl]amino}benzamide] the “Inhibition Level (retardation time, recalcification time)” value was “B (the compounds (30 μM) having retardation time of 20 seconds or more to less than 50 seconds)”. `O=C(N[C@@H]1C[C@H]1c1ccccc1)c1cccc(Nc2ccc(-c3cccc(F)c3)cn2)c1` [Compound 123, 3-{[5-(3-fluorophenyl)pyridin-2-yl]amino}-N-[(1R,2S)-2-phenylcyclopropyl]benzamide] was tested, and the “Inhibition Level (retardation time, recalcification time)” value was “B (the compounds (30 μM) having retardation time of 20 seconds or more to less than 50 seconds)”.
